# Values joined by “and” are separate entries in the source; they are usually repeats but may differ in a detail not shown here. Equal entries are not always repeated.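 Each compound was tested at five concentrations against cells in 96-well plates for 48 hours. Abbreviation: GI50, concentration required for 50% inhibition of growth. TGI denotes the concentration required for complete inhibition of growth.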
# Legend:
# Experiment in all cases: growth of human tumour cells (NCI), 48 h
# PC-3 prostate = test system: PC-3 prostate
# BT-549 breast = test system: BT-549 breast
# HCT-15 colon = test system: HCT-15 colon
# ACHN renal = test system: ACHN renal
# SNB-75 CNS = test system: SNB-75 CNS
# 786-0 renal = test system: 786-0 renal
# SK-MEL-2 melanoma = test system: SK-MEL-2 melanoma
# HOP-62 NSCLC = test system: HOP-62 NSCLC
# SN12C renal = test system: SN12C renal
# HOP-92 NSCLC = test system: HOP-92 NSCLC
Compound,GI50 (PC-3 prostate),TGI (PC-3 prostate),GI50 (BT-549 breast),GI50 (HCT-15 colon),TGI (HCT-15 colon),GI50 (ACHN renal),TGI (ACHN renal),GI50 (SNB-75 CNS),TGI (SNB-75 CNS),GI50 (786-0 renal),TGI (786-0 renal),GI50 (SK-MEL-2 melanoma),TGI (SK-MEL-2 melanoma),GI50 (HOP-62 NSCLC),TGI (HOP-62 NSCLC),GI50 (SN12C renal),TGI (HOP-92 NSCLC),TGI (SN12C renal),TGI (BT-549 breast),GI50 (HOP-92 NSCLC)
CC[C@@]1(OC(=O)CN)C(=O)OCc2c1cc1n(c2=O)Cc2cc3c(N)c4c(cc3nc2-1)OCO4,0.0361 µM and 0.0322 µM,> 100 µM,0.24 µM,0.0409 µM and 0.147 µM,> 100 µM,< 0.0001 µM,0.104 µM and 0.0152 µM,0.000442 µM,0.824 µM,< 0.0001 µM,0.0093 µM,0.0226 µM,0.327 µM,< 0.0001 µM,0.205 µM and 0.25 µM,< 0.0001 µM,–,–,–,–
CC(C)NC(=O)O/N=C1\CCC2[C@@H]3CC=C4C[C@@H](OC(=O)NC(C)C)CC[C@]4(C)C3CC[C@]12C (some centres undefined),–,–,–,–,3.08 µM,–,2.17 µM,–,3.74 µM,–,4.01 µM,–,2.9 µM,–,> 34 µM,–,5.02 µM,3.14 µM,–,–
COc1cccc(Nc2nccc(Nc3ccc4[nH]ncc4c3)n2)c1,1.34 µM,3.12 µM,1.67 µM,1.21 µM,2.91 µM,–,–,1.39 µM,3.13 µM,1.46 µM,2.91 µM,1.62 µM,3.27 µM,1.71 µM,3.78 µM,–,4.14 µM,–,3.71 µM,1.45 µM
O=C1c2cccc3cc([N+](=O)[O-])cc(c23)C(=O)N1O,–,> 100 µM,–,–,> 100 µM,–,> 100 µM,–,–,–,> 100 µM,–,> 100 µM,–,> 100 µM,–,> 100 µM,> 100 µM,> 100 µM,–
CC1=NN(c2ccccc2)C(=O)C1N=Nc1ccc(Br)c(C)c1 (centres undefined),–,–,–,–,> 100 µM,–,> 100 µM,–,> 100 µM,–,> 100 µM,–,> 100 µM,–,> 100 µM,–,> 100 µM,> 100 µM,–,–
Cc1cc(C)c2[s+]snc2c1,–,–,–,–,–,–,> 100 µM,–,> 100 µM,–,> 100 µM,–,> 100 µM,–,> 100 µM,–,–,> 100 µM,–,–
N#CC12Cc3ccc4c(c3-c3cccc(c31)CCN2C(=O)c1ccccc1)OCO4 (centres undefined),–,–,–,–,> 100 µM,–,> 100 µM,–,> 100 µM,–,> 100 µM,–,–,–,> 100 µM,–,> 100 µM,> 100 µM,–,–
CC[O-].CC[O-].O=C([CH-]C(=O)c1ccccc1)c1ccccc1.O=C([CH-]C(=O)c1ccccc1)c1ccccc1.[Ti+4],–,–,–,> 100 µM,> 100 µM,> 100 µM,> 100 µM,61.6 µM,> 100 µM,> 100 µM,> 100 µM,> 100 µM,> 100 µM,> 100 µM,> 100 µM,> 100 µM,> 100 µM,> 100 µM,–,44.3 µM
Cc1cc2c(cc1C)[n+]([O-])c(-c1c(Cl)cccc1Cl)c(N)[n+]2[O-],–,–,–,–,> 100 µM,–,> 100 µM,–,> 100 µM,–,> 100 µM,–,> 100 µM,–,96.8 µM,–,> 100 µM,> 100 µM,–,–
O=C1c2ccccc2C(=O)c2sc(Nc3ccc(Cl)c(Cl)c3)nc21,–,–,–,–,5.06 µM,–,3.17 µM,–,26.7 µM,–,3.59 µM,–,33.2 µM,–,21.3 µM,–,28 µM,3.23 µM,–,–
CC12OC3CC(O1)C1(C=O)C4CCC5(C)C(c6ccc(=O)oc6)CCC5(O)C4CCC1(C3)O2 (centres undefined),–,–,–,–,0.648 µM,–,0.348 µM,–,1.03 µM,–,0.246 µM,–,0.79 µM,–,0.348 µM,–,1.71 µM,–,–,–

# Reference: PubChem BioAssay (NCI)
